pIC50: −log10 of the molar value.
Each compound was assayed against EBI2 (Homo sapiens, UniProt P32249) (assay: Cell-based luminescent assay of EBI2 modulation (7a,25-OHC stimulated)). Details: 7a,25-OHC final assay concentration 80 nM, 60 minute incubation.
Sequence of EBI2 (P32249 whole entry): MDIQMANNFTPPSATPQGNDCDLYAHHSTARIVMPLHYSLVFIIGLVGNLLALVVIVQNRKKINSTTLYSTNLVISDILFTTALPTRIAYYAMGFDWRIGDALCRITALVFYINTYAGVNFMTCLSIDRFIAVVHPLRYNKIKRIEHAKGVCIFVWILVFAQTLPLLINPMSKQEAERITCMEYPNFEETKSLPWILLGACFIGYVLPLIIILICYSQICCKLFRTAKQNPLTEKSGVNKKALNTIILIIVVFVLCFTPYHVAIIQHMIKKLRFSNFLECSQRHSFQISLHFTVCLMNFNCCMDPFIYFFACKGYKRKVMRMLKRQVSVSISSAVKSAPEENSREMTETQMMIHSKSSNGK
How it was run: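 Cells expressing EBI2 were plated overnight, then treated 60 min at 37 °C with compound (final 4-5 uM) plus 7a,25-OHC (80 nM final). Detection reagent was added for 60 min at 25 °C in the dark, with luminescence read-out. Values were normalized between neutral and stimulator controls and corrected for plate patterns.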
With `O=C(/C=C/c1ccc(Cl)c(Cl)c1)N1CC2(CCN(Cc3ccc(C(F)(F)F)c(F)c3)CC2)C1` [Compound C34, (2E)-3-(3,4-dichlorophenyl)-1-(7-{[3-fluoro-4-(trifluoromethyl)phenyl]methyl}-2,7-diazaspiro[3.5]non-2-yl)prop-2-en-1-one] the pIC50 was 6.30 to 7.00.
With `O=C(C#Cc1ccc(Cl)cc1)N1CCC2(CC1)CN(C(=O)c1ccc(F)cc1)C2` [Compound C77, 3-(4-chlorophenyl)-1-{2-[(4-fluorophenyl)carbonyl]-2,7-diazaspiro[3.5]non-7-yl}prop-2-yn-1-one] the pIC50 was over 7.00.
`O=C(C#Cc1ccc(Cl)cc1)N1CC2(CCN(Cc3ccc(C(F)(F)F)cc3)CC2)C1` [Compound C83, 3-(4-chlorophenyl)-1-(7-{[4-(trifluoromethyl)phenyl]methyl}-2,7-diazaspiro[3.5]non-2-yl)prop-2-yn-1-one] gave a pIC50 of 5.30 to 6.30.
Work on `O=C(c1ccc(Cl)cc1)N1CCC2(CC1)CN(C(=O)c1cc3ccc(Br)cc3[nH]1)C2` [Compound C59, 6-bromoindol-2-yl 7-[(4-chlorophenyl)carbonyl]-2,7-diazaspiro[3.5]non-2-yl ketone] yielded a pIC50 of 5.30 to 6.30.

From US10196369B2, “Spirocyclic EBI2 modulators” (Sanford Burnham Prebys Medical Discovery Institute, priority 2013, dated 2019)
